According to US20040127739A1, “Novel n-p-propargyloxyphenethyl-thioacetic acid amides” (priority 2001, published 2004):

Key:
Format in all cases: in vivo
[1] = system: Phytophthora; assay: Action against Phytophthora on tomato plants (residual-protective / systemic); conditions: untreated plants showed pathogen attack of 80% to 100%, read-out: inhibition of fungal infestations
Description: Action Against Phytophthora on Tomato Plants
(§1) a) Residual-protective Action
(§2) After a cultivation period of 3 weeks, tomato plants are sprayed with a spray mixture (0.02% active ingredient) prepared from a wettable powder formulation of the test compound. After 48 hours, the treated plants are infected with a sporangia suspension of the fungus. Fungus infestation is evaluated after incubation of the infected plants for 5 days at 90-100% relative humidity and +20° C.
as §2, with “watered” for “sprayed”, “ingredient based on the volume of the soil)” for “ingredient)”, “compound. […]” for “compound.”, “96” for “48”, “4” for “5”

[2] = system: Plasmopara viticola; assay: Action against Plasmopara viticola on vines (residual-protective / residual-curative); conditions: vine seedlings, untreated plants showed pathogen attack of 80% to 100%, read-out: inhibition of fungal infestations
Description: Action Against Plasmopara viticola on Vines a) Residual-protective Action
Vine seedlings are sprayed at the 4- to 5-leaf stage with a spray mixture (0.02% active ingredient) prepared from a wettable powder formulation of the test compound. After 24 hours, the treated plants are infected with a sporangia suspension of the fungus. Fungus infestation is evaluated after incubation for 6 days at 95-100% relative humidity and +20° C. […]
b) Residual-curative Action
Vine seedlings are infected at the 4- to 5-leaf stage with a sporangia suspension of the fungus. After incubation for 24 hours in a humidity chamber at 95-100% relative humidity and +20° C., the infected plants are dried and sprayed with a spray mixture (0.02% active ingredient) prepared from a wettable powder formulation of the test compound. After the spray coating has dried, the treated plants are placed in the humidity chamber again. Fungus infestation is evaluated 6 days after infection.

[3] = system: Phytophthora; assay: Action against Phytophthora on potato plants (residual-protective / systemic); conditions: potato plants (Bintje variety), untreated plants showed pathogen attack of 80% to 100%, read-out: inhibition of fungal infestations
Description: Action Against Phytophthora on Potato Plants
as §1
(§3) 2-3 week old potato plants (Bintje variety) are sprayed with a spray mixture (0.02% active ingredient) prepared from a wettable powder formulation of the test compound. After 48 hours, the treated plants are infected with a sporangia suspension of the fungus. Fungus infestation is evaluated after incubation of the infected plants for 4 days at 90-100% relative humidity and +20° C.
as §3, with “watered” for “sprayed”, “ingredient based on the volume of the soil)” for “ingredient)”, “compound. […]” for “compound.”

For `C#CCOc1ccc(CCNC(=S)C(OCC#C)c2ccc(Cl)cc2)cc1OC` (stereo not shown) [Compound A1.01, 2-(4-Chloro-phenyl)-N-[2-(3-methoxy-4-prop-2-ynyloxy-phenyl)-ethyl]-2-(prop-2-ynyloxy)-thioacetamide], which inhibition at 200 ppm [1] is on record?
Its inhibition at 200 ppm is 80 to 100%.

And the inhibition at 200 ppm [2]?
The inhibition at 200 ppm was 80 to 100%.

What about the inhibition at 200 ppm [3] of the same molecule?
Its inhibition at 200 ppm is 80 to 100%.

With `C#CCOc1ccc(CCNC(=S)C(OCC#C)c2ccc(Br)cc2)cc1OC` (stereo not shown) [Compound A1.02, 2-(4-bromo-phenyl)-N-[2-(3-methoxy-4-prop-2-ynyloxy-phenyl)-ethyl]-2-(prop-2-ynyloxy)-thioacetamide] as the molecule, how does the inhibition at 200 ppm [1] read?
The inhibition at 200 ppm was 80 to 100%.

And the inhibition at 200 ppm [2]?
Its inhibition at 200 ppm is 80 to 100%.

And the inhibition at 200 ppm [3]?
Its inhibition at 200 ppm is 80 to 100%.

For `C#CCOc1ccc(CCNC(=S)C(OC(C)=O)c2ccc(Cl)cc2)cc1OC` (stereo not shown) [Compound A1.03, 2-acetoxy-2-(4-chloro-phenyl)-N-[2-(3-methoxy-4-prop-2-ynyloxy-phenyl)-ethyl]-thioacetamide], which inhibition at 200 ppm [1] is on record?
The inhibition at 200 ppm was 80 to 100%.

And the inhibition at 200 ppm [2]?
Its inhibition at 200 ppm is 80 to 100%.

What about the inhibition at 200 ppm [3] of the same molecule?
Its inhibition at 200 ppm is 80 to 100%.

How did the inhibition at 200 ppm [3] turn out when `C#CCOc1ccc(CCNC(=S)C(OC(C)=O)c2ccc(Br)cc2)cc1OC` (stereo not shown) [Compound A1.04, 2-acetoxy-2-(4-bromo-phenyl)-N-[2-(3-methoxy-4-prop-2-ynyloxy-phenyl)-ethyl]-thioacetamide] was run?
The inhibition at 200 ppm was 80 to 100%.

`C#CCOc1ccc(CCNC(=S)C(O)c2ccc(Cl)cc2)cc1OC` (stereo not shown) [Compound A2.01, 2-(4-Chloro-phenyl)-2-hydroxy-N-[2-(3-methoxy-4-prop-2-ynyloxy-phenyl)-ethyl]-thioacetamide] was tested. Which inhibition at 200 ppm [1] did it give?
The inhibition at 200 ppm was 80 to 100%.

And the inhibition at 200 ppm [2]?
The inhibition at 200 ppm was 80 to 100%.

And the inhibition at 200 ppm [3]?
The inhibition at 200 ppm was 80 to 100%.

Which results are given for `C#CCOc1ccc(CCNC(=S)C(O)c2ccc(Br)cc2)cc1OC` (stereo not shown) [Compound A2.02, 2-(4-bromo-phenyl)-2-hydroxy-N-[2-(3-methoxy-4-prop-2-ynyloxy-phenyl)-ethyl]-thioacetamide]?
inhibition at 200 ppm [1]: 80 to 100%; inhibition at 200 ppm [2]: 80 to 100%; inhibition at 200 ppm [3]: 80 to 100%
